In PMC12125351 (Communications Biology, 2025):
No end group written: not given here.

Tested on: P. aeruginosa (ATCC 27853)
Assay type: cell-based
Settings: broth microdilution in MHB, 37 °C, 16–20 h; triplicate, n = 3

Sequence: LVQRGRFGRFLSRIRRIRPRINFNIKGSI [AMP-17]
- Experimentally measured MIC against P. aeruginosa (ATCC 27853): above 25 μM
